Values of other authors, collected in PMC8448819, “The Arabidopsis MIK2 receptor elicits immunity by sensing a conserved signature from phytocytokines and microbes” (Nature Communications, 2021).

Tests used:
[1] = system: Arabidopsis WT seedlings; conditions: RLK7 activation by PIP1; cited from earlier work
From the text: (§1) Plant plasma membrane-resident RKs perceive diverse exogenous and endogenous signals via the extracellular domain and activate intracellular responses through the cytoplasmic kinase domain[1]–[3]. The chimeric receptors with the swapped extracellular and intracellular domains between different RKs have been used to study the specificity of signal perception and signaling activation[48]–[52]. The extracellular domains of RKs determine the ligand-binding specificity[50],[51],[53]. The intracellular kinase domains of different RKs also trigger specific responses. For example, the chimeric rec ...

[2] = system: Arabidopsis WT (Col-0) seedlings; conditions: RLK7 activation by PIP1; cited from earlier work
From the text: as §1

Substance: RLASGP(OH)SPRGRGH [PIP1, secreted peptide, ligand of RLK7]
- ROS production [1]: weakly induces ROS production
- root growth [2]: moderately inhibits root growth
